Values quoted from earlier work as cited in US20080287669A1, “METHODS AND COMPOSITIONS FOR IDENTIFYING COMPOUNDS USEFUL IN NUCLEIC ACID PURIFICATION” (priority 2007, published 2008).
Structures can show the parent of a compound that is named as a salt.

Conditions: not given

SMILES	Dielectric Constant (DC)
O=C(O)C(Cl)(Cl)Cl [trichloroacetic acid]	4.6
NC=O [formamide]	111
C[S+](C)[O-] [dimethylsulfoxide]	38

Same assay, conditions: Table 1, soluble organic solvents

Dielectric Constant (DC)	SMILES
2.66	CCCCC(=O)O [pentanoic acid]
11.92	OCc1ccccc1 [benzyl alcohol]
6.18	COC [dimethylether]
18.5	CCC=O [propanal]
5.36	Cc1ccc(C)c(O)c1 [2,5-xylenol]
3.07	CCCNCCC [dipropylamine]
2.77	CCCCNCCCC [dibutylamine]
9.06	Cc1cc(C)cc(O)c1 [3,5-xylenol]
6.97	CC1CCCO1 (stereo not shown) [2-methyl-tetrahydrofuran]
26.2	OCCCCCO [1,5-pentanediol]
13.45	CCCC=O [butanal]
6.08	CCOC(C)=O [ethyl acetate]

SMILES	Dielectric Constant (DC)
CCOC=O [ethyl formate]	8.57
NC1CCCCC1 [cyclohexylamine]	4.55
C[N+](=O)[O-] [nitromethane]	37.27
CC(=O)C=C(C)C [mesityl oxide]	15.6
Brc1cccc2ccccc12 [1-bromonaphthalene]	4.77
FC(F)(Cl)Cl [dichlorodifluoromethane]	3.5
S=C=S [carbon disulfide]	2.63
Cc1ccccc1O [o-cresol]	6.76
CCOP(=O)(OCC)OCC [triethyl phosphate]	13.2
O=Cc1ccco1 [furfural]	42.1
O=C1CCCCC1 [cyclohexanone]	16.1

Same assay, conditions: Table 2, very soluble organic solvents

Dielectric Constant (DC)	SMILES
31.5	OCCCCC(O)CO (stereo not shown) [1,2,6-hexanetriol]
67.6	CC(N)=O [acetamide]
32.2	CN1CCCC1=O [N-methyl-2-pyrrolidone]
14	CCOC(=O)CC(C)=O [ethylacetoacetate]
7.07	COC(C)=O [methylacetate]
5.7	CCOCCOCCOCC [diethylene glycol diethyl ether]
10.18	Cc1ccccn1 [2-picoline]
9.6	Cc1ccnc(C)c1 [2,4-lutidine]
13.71	CCCC(C)O (stereo not shown) [2-pentanol]
11.95	CCCCCC(C)=O [methyl pentyl ketone]
66.14	CC1COC(=O)O1 (stereo not shown) [propylene carbonate]
17	CCC(=O)CC [diethylketone]

SMILES	Dielectric Constant (DC)
CN(C)C [trimethylamine]	2.44
FC(F)Cl [chlorodifluoromethane]	6.11
CCOCCOC(C)=O [ethylene glycol ethylether acetate]	7.57
COCCOC(C)=O [ethylene glycol monomethylether acetate]	8.25
CC(=O)OC(C)=O [acetic anhydride]	22.45

Same assay, conditions: Table 3, miscible organic solvents

Dielectric Constant (DC)	SMILES
2.98	CCCC(=O)O [butanoic acid]
31.94	NCCO [ethanolamine]
8.3	C1CCNC1 [pyrrolidine]
7.33	Cc1cccc(C)n1 [2,6-lutidine]
4.27	CCCCCN [pentylamine]
3.44	CCC(=O)O [propanoic acid]
7.42	C1COCCN1 [morpholine]
12.62	NCCNCCN [diethylenetriamine]
46.53	OCC(O)CO [glycerol]
18.2	CC(=O)CC(C)(C)O [diacetone alcohol]
23.69	OCCOCCOCCO [triethyleneglycol]
4.43	CC(C)CN [isobutylamine]
4.71	CCCCN [butylamine]
11.1	Cc1cccnc1 [3-picoline]
47.24	C[S+](C)[O-] [dimethylsulfoxide]
25.3	CCO [ethanol, reference compound]
6.2	CC(=O)O [acetic acid]
9.3	CCCCOCCO [ethyleneglycol monobutyl ether]

SMILES	Dielectric Constant (DC)
CC(O)CCO (stereo not shown) [1,3-butanediol]	28.8
O=S1(=O)CCCC1 [sulfolane]	43.26
CCN [ethylamine]	8.7
C=CCO [allyl alcohol]	19.7
OCCCO [1,3-propanediol]	35.1
Cc1ccncc1 [4-picoline]	12.2
CC(C)O [2-propanol]	20.18
C1CCOC1 [tetrahydrofuran]	7.52
CC=O [acetaldehyde]	21
CC(O)CO (stereo not shown) [1,2-propanediol]	27.5
OCc1ccco1 [furfuryl alcohol]	16.85

Same assay, conditions: Table 4, exemplary solvents

SMILES	Dielectric Constant
O=S1(=O)CCCC1 [sulfolane]	43.26
C1CCOC1 [tetrahydrofuran]	7.52
C[S+](C)[O-] [dimethylsulfoxide]	47.2
CCO [ethanol, reference compound]	25.3
